{"source": "patent US4238473A", "about": "“Artificial oligosaccharide antigenic determinants” (priority 1975, dated 1980)", "key": {"[1]": {"system": "antibodies raised to this conjugate (antigen 12)", "assay": "Hapten inhibition of precipitation of anti-12 sera with (β-D-gal-O(CH2)8 CONH)23 -HSA", "assay_type": "binding, rabbit", "details": "(β-D-gal-O(CH2)8 CONH)23 -HSA as the precipitating antigen; for IC50: read-out: concentration giving 50% inhibition of precipitation"}, "antisera raised to 13": {"system": "antisera raised to 13", "assay": "Hapten inhibition of precipitation between 13 and antisera raised to 13", "assay_type": "binding, rabbit", "description": "(§1) This antigen was prepared from the hydrazide derivative of compound 2 using the acyl azide coupling method described in example XII. […] Proof of the hapten specific nature of the response comes from hapten specific inhibition of precipitation between 13 and antisera raised to 13."}, "[2]": {"system": "antibodies raised to this conjugate (antigen 12)", "assay_type": "binding, rabbit", "details": "50 μl of crude sera raised to antigen 12", "excerpt": "(§2) For rabbits the immunization protocol was that described by Martineau^2 and for goats that of Marcus and Grollman^3. The course of the immunization was followed by quantitative precipitin tests on samples of blood withdrawn at various times. The procedures used were all standard to the field of immunology^4."}, "San Juan rabbits": {"system": "San Juan rabbits", "details": "six San Juan rabbits, antigen in Freund's complete adjuvant", "excerpt": "as §2"}, "rabbits": {"system": "rabbits", "assay": "Immunization of rabbits with 13, specificity of sera", "assay_type": "in vivo, rabbit", "details": "rabbits immunized with 13", "description": "as §1"}, "[3]": {"system": "antiserum raised against [Le^a -O(CH2)8 CONH]30 -BSA", "assay": "Maximum precipitation of anti-[Le^a -O(CH2)8 CONH]30 -BSA antiserum against test antigen", "assay_type": "binding, rabbit", "details": "as test antigen against antiserum raised to [Le^a -O(CH2)8 CONH]30 -BSA", "description": "The above antiserum had been raised against the artificial Lewis-a antigen [Le^a -O(CH2)8 CONH]30 -BSA. The maximum precipitation against [Le^a -O(CH2)8 CONH]28 -HSA as test antigen was 277 μg of antibody per 50 μl of antiserum."}, "[4]": {"system": "human Lewis-a blood group substance", "assay": "Goat immunization, cross-reaction of antisera with natural substance", "assay_type": "in vivo", "details": "goat immunized with the antigen", "excerpt": "(§3) To further explore the extent of cross reactions between antibodies raised to the artificial Le^a antigens and human Lewis-a blood group substance and to obtain larger amounts of antisera, a goat was immunized with [Le^a -O(CH2)8 CONH]30 -BSA."}, "Lewis (a-) red cells": {"system": "Lewis (a-) red cells", "assay": "Agglutination of red cells by goat antisera to artificial Le^a antigen", "assay_type": "cell-based, human", "details": "goat antisera after appropriate treatment", "excerpt": "as §3"}, "[5]": {"system": "human blood group Lewis-(a+b-) red cells", "assay": "Agglutination of red cells by goat antisera to artificial Le^a antigen", "assay_type": "cell-based", "details": "goat antisera after appropriate treatment", "excerpt": "as §3"}, "[6]": {"system": "Rabbit antisera raised to Le^a -BSA antigens", "assay": "Immunodiffusion of rabbit antisera raised to Le^a -BSA antigens", "assay_type": "binding"}, "[7]": {"details": "at the concentration that methyl β-D-glcNAc was effective"}}}
{"molecule": "OC[C@H]1OC(O)[C@H](O)[C@@H](O)[C@H]1O", "note": "(stereo partly drawn) [galactose]", "values": [{"measurement": "IC50", "setting": "[1]", "result": 6.6, "unit": "mM"}]}
{"molecule": "OC[C@H]1O[C@@H](O[C@H]2[C@H](O)[C@@H](O)C(O)O[C@@H]2CO)[C@H](O)[C@@H](O)[C@H]1O", "note": "(stereo partly drawn) [lactose]", "values": [{"measurement": "IC50", "setting": "[1]", "result": 70, "unit": "mM"}]}
{"molecule": "CO[C@H]1O[C@H](CO)[C@H](O)[C@H](O)[C@H]1O", "note": "[methyl α-D-galactopyranoside]", "values": [{"measurement": "IC50", "setting": "[1]", "result": 33, "unit": "mM"}]}
{"molecule": "CO[C@@H]1O[C@H](CO)[C@H](O)[C@H](O)[C@H]1NC(C)=O", "note": "[methyl β-D-galNAc]", "values": [{"measurement": "inhibition of precipitation", "setting": "antisera raised to 13; [7]", "result": "virtually no inhibition"}]}
{"molecule": "CO[C@@H]1O[C@H](CO)[C@H](O)[C@H](O)[C@H]1O", "note": "[methyl β-D-galactopyranoside]", "values": [{"measurement": "IC50", "setting": "[1]", "result": 0.83, "unit": "mM"}]}
{"molecule": "CO[C@@H]1O[C@H](CO)[C@@H](O)[C@H](O)[C@H]1NC(C)=O", "note": "[methyl β-D-glcNAc]", "values": [{"measurement": "inhibition of precipitation", "setting": "antisera raised to 13; precipitation between 13 and antisera raised to 13", "result": "60-80%"}]}
{"molecule": "CO[C@@H]1O[C@H](CO)[C@@H](O)[C@H](O)[C@H]1O", "note": "[methyl β-D-glucopyranoside]", "values": [{"measurement": "inhibition of precipitation", "setting": "antisera raised to 13; [7]", "result": "virtually no inhibition"}, {"measurement": "inhibition of precipitation", "setting": "[1]", "result": "approximately no inhibition"}]}
{"molecule": "(α-D-gal-O(CH2)8 CONH)17 -BSA", "values": [{"measurement": "maximum amount of antibody precipitated", "setting": "[2]", "result": 87, "unit": "µg"}]}
{"molecule": "(β-D-gal-O(CH2)8 CONH)24 -BSA [antigen 12]", "values": [{"measurement": "maximum amount of antibody precipitated", "setting": "[2]", "result": 396, "unit": "µg"}, {"measurement": "Antibody levels upon completion of the schedule (average)", "setting": "San Juan rabbits", "result": 277, "unit": "μg per 50 μl sera"}]}
{"molecule": "(β-D-glcNAc-O(CH2)8 CONH)25 -BSA [antigen 13]", "values": [{"measurement": "specificity of sera from immunized rabbits", "setting": "rabbits", "result": "high specificity for antigens containing the β-D-glcNAc hapten"}]}
{"molecule": "[Le^a -O(CH2)8 CONH]28 -HSA", "values": [{"measurement": "maximum precipitation", "setting": "[3]", "result": "277 μg of antibody per 50 μl of antiserum"}]}
{"molecule": "[Le^a -O(CH2)8 CONH]30 -BSA", "values": [{"measurement": "cross-reaction of antisera with human Lewis-a blood group substance", "setting": "[4]", "result": "showed the expected cross-reaction"}, {"measurement": "agglutination by the antisera", "setting": "Lewis (a-) red cells", "result": "did not agglutinate"}, {"measurement": "agglutination by the antisera", "setting": "[5]", "result": "effectively agglutinated"}]}
{"molecule": "dextran", "values": [{"measurement": "line of precipitation on immunodiffusion", "setting": "[6]", "result": "No line of precipitation"}]}
{"molecule": "polylysine", "values": [{"measurement": "line of precipitation on immunodiffusion", "setting": "[6]", "result": "No line of precipitation"}]}
